Measured values as given in BindingDB's records for patent US20240228491 (Scinnohub Pharmaceutical, 2024).

Target: S-adenosylmethionine synthase isoform type-2 (Homo sapiens, UniProt P31153)
Experiment: Enzymatic Activity Test
Experimental: The specific steps were as follows: The compounds having the test starling concentration of 1 uM or 10 uM were diluted into 10 concentration points in a 3-fold gradient. 250 nL of the solutions of the compounds to be tested with 10 different concentrations were taken and added into a 384 well plate for later use. 20 ug/mL of MAT2a enzyme solution was prepared with Assay buffer (50 mM Tris, 50 mM KCl, 10 mM MgCl2, 0.05% polyoxyethylene lauryl ether, pH 8.0). 15 uL of the MAT2a enzyme solution at 20 ug/mL was add into the wells of the compounds to be tested at different concentrations; and 15 uL of Assay buffer was added into the negative control well. An incubation was carried out for 15 minutes after shaking for mixing well. A mixed substrate solution (comprising 400 uM ATP and 600 uM L-Methionine) was prepared with Assay buffer. 10 uL of the mixed substrate solution was added to the positive control well, the compound to be tested well, and the negative control well, respectively, and the reaction began, for a reaction time of 150 min. Then, 50 uL of the reaction stop solution (BIOMOL Green Reagent Enzo lifesciences, Cargo No. BML-AK111-1000) was added to stop the reaction, followed by being centrifuged at 1000 rpm for 60 s and then being incubated for 15 min. OD620 was read and data were processed.

S-adenosylmethionine synthase isoform type-2, sequence (P31153 whole entry, canonical isoform): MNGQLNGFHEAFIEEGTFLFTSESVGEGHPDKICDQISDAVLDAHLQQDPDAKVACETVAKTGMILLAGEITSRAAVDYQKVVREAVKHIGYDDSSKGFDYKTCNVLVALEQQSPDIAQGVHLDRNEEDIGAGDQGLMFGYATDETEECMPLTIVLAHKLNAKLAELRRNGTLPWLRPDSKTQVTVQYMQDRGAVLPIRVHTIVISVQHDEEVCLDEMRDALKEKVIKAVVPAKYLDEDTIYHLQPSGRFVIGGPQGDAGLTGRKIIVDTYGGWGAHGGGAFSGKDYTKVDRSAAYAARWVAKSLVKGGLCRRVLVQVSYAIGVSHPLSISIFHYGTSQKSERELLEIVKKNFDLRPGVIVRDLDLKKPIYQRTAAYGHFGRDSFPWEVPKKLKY

IC50: 20.2 nM
Compound: CNc1c(-c2ccsc2)c(=O)n(-c2ccccc2)c2nc(C(F)(F)F)ccc12 [US20240228491, Example 4]
